Experimental data as given in patent EP3820512B1, “IMMUNOMODULATING COMPOSITIONS COMPRISING OLIGOSACCHARIDE DERIVATIVES” (priority 2018, dated 2020).

Assays:
[1] = test system: VEGF induced tube formation in HUVECs; assay: Anti-angiogenic activity, Tube Formation kit, VEGF induced; assay type: cell-based, human; settings: VEGF 100ng/mL
Experimental: Selected TLR2/4 antagonist compounds 2, 6, 7, 8, 14, 17 and 32 were evaluated for anti-angiogenic activity using the Tube Formation kit (Cat#3470-096-K). VEGF (100ng/mL) was used as positive control. These compounds have potential applications in diseases associated with pathological angiogenesis such as solid tumor, […], diabetic retinopathy as well as AMD.

TLR6 = biological target: T1, TLR6 (Homo sapiens, UniProt Q9Y2C9); assay: TLR6 stimulation: IL-6 ELISA in hPBMC with TLR6 ligand Pam2CSK4; assay type: cell-based; settings: in combination with Pam2CSK4, hPBMC, 24h
T1 construct: endogenous in cells; host or cells: hPBMC (human peripheral blood monocytes)
Experimental: Compound 8 stimulates the TLR6 activities and upregulates the production of IL-6 cytokine in combination with TLR6 ligand Pam2CSK4 in hPBMC after 24h of treatment as detected by ELISA (FIG. 9).

HUVECs = assay: Cytotoxicity in HUVECs, MTT cell proliferation kit; assay type: cell-based, human; settings: 100 µM, 24h
Experimental: Selected TLR2/4 antagonist compounds 2, 6, 7, 8, 14, 17 and 32 were evaluated for cytotoxicity in HUVECs at 100 µM concentration. The cells were treated with compounds and incubated for 24h. Cell viability was assessed using MTT cell proliferation kit (Promega). All the compounds were not toxic to HUVECs (FIG. 15).

TLR1/2 = biological target: T2, TLR1/2 (Homo sapiens, UniProt O60603); assay: TLR1/2 modulation: IL-6 ELISA in hPBMC with TLR1/2 ligand Pam3CSK4; assay type: cell-based
T2 construct: endogenous in cells; host or cells: hPBMC (human peripheral blood monocytes)
From the text: Compound 8 modulates the TLR1/2 activities in a concentration dependent manner.

[2] = test system: hyperoxia induced BPD in mouse pups; assay: Hyperoxia-exposed BPD mouse model (newborn pups); assay type: in vivo
From the text: Neonatal mice and humans undergo similar stages of lung development but differ with respect to the duration of each stage and its temporal relationship to gestational age. The lungs of the mouse born at term are in the saccular stage and are surfactant sufficient; this can be considered somewhat akin to a human preterm neonate in the same stage of lung development that has been exposed to a full complement of antenatal steroids (which is known to enhance surfactant production). In terms of mimicking the human condition, the most successful hyperoxia models are those that limit exposure to hyperoxia to the saccular stage of pulmonary development. The mouse BPD model involves exposing newborn mice (postnatal day 1 or PN1) to 100% oxygen till PN4 followed by recovery in room air (RA) for another 10 days.
After the recovery period, their lungs were harvested and processed for quantitative PCR, western blotting, histopathology and ELISA.
After the recovery period, their lungs were harvested and processed for quantitative PCR, western blotting and histopathology and ELISA.
BPD is characterized by large simplified alveoli, inflammation, increased cell death, decreased cell proliferation, dysmorphic capillary configuration, and variable interstitial cellularity and/or fibroproliferation. […] This is determined by measuring the alveolar chord length, septal thickness and radial alveolar count (RAC). In BPD, the alveolar area increases which is characterized by increase in the diameter of the alveolar sacs, the septa become thickened (thus interfering in gaseous exchange) and the RAC, a parameter used to assess the complexity of terminal respiratory unit by pulmonologists, decreases as a result of arrested lung development.

[3] = test system: LPS induced lung injury in mice; assay: LPS-induced ALI model; assay type: in vivo, C57BL/6 mice
From the text: (§1) Male C57BL/6 mice (Jackson Laboratories,) 12-15 weeks old, 25 - 28 gms, housed up to 5 per cage were used.
The lungs were sectioned for histopathological assessment after H/E staining while the BAL fluid was used to detect total cell counts (neutrophils and macrophages) and measure protein (that exudes by leakage).

[4] = test system: hyperoxia-induced lung injury in mice; assay: Hyperoxia induced ALI model; assay type: in vivo, C57BL/6 mice
Experimental: as §1
Hyperoxia induced ALI model: The ARDS model consists of exposing adult mice in 100% oxygen for 48h followed by injecting with test compounds. Adult mice (N=5) were housed in plexi chamber with a constant and continuous supply of 100% oxygen for 48h. […] The mice were sacrificed after 48 h to harvest lung tissues and collect (BAL) fluid.

TLR7/8 = TLR7/8 modulation: cytokine ELISA in hPBMC, alone or with TLR7/8 ligand CL075; assay type: cell-based, human
From the text: Compound 8 modulates the TLR7/8 activities in a concentration dependent manner.

T2 sequence (O60603 21-784): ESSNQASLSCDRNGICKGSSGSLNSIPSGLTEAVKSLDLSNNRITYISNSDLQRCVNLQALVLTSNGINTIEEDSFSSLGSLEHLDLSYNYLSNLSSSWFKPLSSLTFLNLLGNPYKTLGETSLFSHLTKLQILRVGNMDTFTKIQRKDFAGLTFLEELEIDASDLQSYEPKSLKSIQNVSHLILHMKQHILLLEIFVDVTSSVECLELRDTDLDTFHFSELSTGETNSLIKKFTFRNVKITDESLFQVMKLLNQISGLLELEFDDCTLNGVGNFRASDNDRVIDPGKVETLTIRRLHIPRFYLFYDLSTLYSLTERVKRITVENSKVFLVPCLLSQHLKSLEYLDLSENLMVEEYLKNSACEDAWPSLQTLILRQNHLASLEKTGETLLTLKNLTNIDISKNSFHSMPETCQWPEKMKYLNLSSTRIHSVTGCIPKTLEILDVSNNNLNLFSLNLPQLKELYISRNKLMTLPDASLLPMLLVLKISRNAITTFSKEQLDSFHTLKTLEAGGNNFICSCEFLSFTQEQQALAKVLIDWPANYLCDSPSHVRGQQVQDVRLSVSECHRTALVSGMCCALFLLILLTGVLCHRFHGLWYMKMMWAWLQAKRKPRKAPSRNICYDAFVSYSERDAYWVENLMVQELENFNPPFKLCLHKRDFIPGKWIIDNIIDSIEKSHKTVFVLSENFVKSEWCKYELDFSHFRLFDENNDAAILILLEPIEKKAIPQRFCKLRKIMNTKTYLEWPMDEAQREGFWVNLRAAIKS
T1 sequence (Q9Y2C9 32-796): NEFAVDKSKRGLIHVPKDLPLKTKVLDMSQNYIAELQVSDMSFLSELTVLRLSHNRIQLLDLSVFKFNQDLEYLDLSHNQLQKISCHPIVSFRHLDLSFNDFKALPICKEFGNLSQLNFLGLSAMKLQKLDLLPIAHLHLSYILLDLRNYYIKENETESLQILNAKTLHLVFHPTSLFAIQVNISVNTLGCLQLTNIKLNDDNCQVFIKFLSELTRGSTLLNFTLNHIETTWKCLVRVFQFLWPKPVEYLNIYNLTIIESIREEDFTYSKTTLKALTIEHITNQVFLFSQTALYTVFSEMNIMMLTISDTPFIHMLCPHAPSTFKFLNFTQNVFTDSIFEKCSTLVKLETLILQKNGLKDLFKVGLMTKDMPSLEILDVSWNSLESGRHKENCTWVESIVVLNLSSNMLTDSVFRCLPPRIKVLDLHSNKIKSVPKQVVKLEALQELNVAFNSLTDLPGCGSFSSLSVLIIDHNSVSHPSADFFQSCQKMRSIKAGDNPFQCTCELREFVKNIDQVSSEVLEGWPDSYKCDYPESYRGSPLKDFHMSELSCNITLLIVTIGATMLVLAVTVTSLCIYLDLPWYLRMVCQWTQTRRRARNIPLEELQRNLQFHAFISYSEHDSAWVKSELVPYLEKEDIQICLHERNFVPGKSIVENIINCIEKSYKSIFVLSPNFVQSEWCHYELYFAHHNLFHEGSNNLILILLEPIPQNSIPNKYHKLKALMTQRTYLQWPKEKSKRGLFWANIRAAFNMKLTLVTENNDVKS
T1 sequence (O60603 21-784 partner): as the sequence (O60603 21-784) above

Q: Which results are given for CC(=O)N[C@H]1[C@H](Oc2ccc([N+](=O)[O-])cc2)O[C@H](CO)[C@@H](O)[C@@H]1O [Compound 8, p-Nitrophenyl 2-acetamido-2-deoxy-β-D-glucopyranoside]?
A: VEGF induced tube formation [1]: significantly decreased; production of IL-6 cytokine (TLR6): upregulates; cytotoxicity in HUVECs (cell viability) (HUVECs): not toxic; IL-6 protein level (TLR1/2; 0.1 µM to <1 µM, in combination with Pam3CSK4, hPBMC, 24h, ELISA): downregulate; production of IL-6 (TLR1/2; 1.0, 10 and 100 µM, in combination with CL075, hPBMC): significantly stimulated; IFN-Y ([2]; 10mg/kg, ELISA (FIG. 26)): decreases; IL-1β ([2]; 10mg/kg, ELISA (FIG. 26)): decreases; IL-6 ([2]; 10mg/kg, ELISA (FIG. 26)): decreases; IL-17 ([2]; 10mg/kg, ELISA (FIG. 26)): decreases; MCP-1 ([2]; 10mg/kg, ELISA (FIG. 26)): decreases; MIP-2 ([2]; 10mg/kg, ELISA (FIG. 26)): decreases; TNF-α ([2]; 10mg/kg, ELISA (FIG. 26)): decreases; anti-inflammatory cytokine IL-10 ([2]; 10mg/kg, ELISA (FIG. 26H)): increase; hyperoxia induced BPD ([2]; IP and IV, saline solution, 5mg/kg or 10 mg/kg on PN2 and PN4 (FIG. 24)): prevent; chord length ([2]; IP injection (FIG. 25)): improvement; radial alveolar count ([2]; IP injection (FIG. 25)): improvement; septal thickness ([2]; IP injection (FIG. 25)): improvement; Inflammatory cytokines in lung tissue and serum ([2]; after injections): decreased; TLR4 inhibition in vivo ([2]; neonatal pups with BPD): inhibit; lung architecture ([2]; saline (IV) and nanosuspension (IN) formulation): restored; protection against LPS induced lung injury ([3]; IP 10mg/kg at 4h and 12h post LPS, sacrifice after 24 h): significant protection; LPS-induced lung inflammation ([3]; IP injection): ameliorated; protection against hyperoxia induced lung injury ([4]; IP 10 mg/kg, two doses, 100% oxygen 48h): significant protection; hyperoxia-induced lung inflammation ([4]; IP injection): ameliorated; IL-10 protein level (TLR7/8; 0.1 µM to <1 µM, alone or in combination with CL075, hPBMC, 24h, ELISA): downregulate; production of IL-1β (TLR7/8; 1.0 µM, alone and in combination with CL075, hPBMC): significantly stimulated
